According to patent US12655116B2, “Substituted isophthalic acid diamides” (Bayer Aktiengesellschaft, priority 2020, dated 2026):

Experiments:
ABUTH [1] = assay: Pre-emergence herbicidal action against ABUTH; assay type: in vivo, Abutilon theophrasti
Method in brief: (§1)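 Seeds sown in sandy loam, soil-covered; compound sprayed on soil surface pre-emergence. Application: WP/EC, 600–800 l/ha, 0.2% wetting agent. Readout: visual % damage at 3 weeks.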

ALOMY = assay: Pre-emergence herbicidal action against ALOMY; assay type: in vivo, Alopecurus myosuroides; conditions: 80 g/ha, pre-emergence, scored visually after 3 weeks vs untreated controls (100% = plants have died, 0% = like control plants)
Method in brief: as §1

AMARE [2] = assay: Pre-emergence herbicidal action against AMARE; assay type: in vivo, Amaranthus retroflexus
Method in brief: as §1

AVEFA [3] = assay: Pre-emergence herbicidal action against AVEFA; assay type: in vivo, Avena fatua; conditions: 80 g/ha, pre-emergence
Method in brief: as §1

ECHCG = assay: Pre-emergence herbicidal action against ECHCG; assay type: in vivo, Echinochloa crus-galli; conditions: 80 g/ha
Method in brief: as §1

HORMU = assay: Pre-emergence herbicidal action against HORMU; assay type: in vivo, Hordeum murinum; conditions: 80 g/ha, pre-emergence
Text: Seeds of monocotyledonous and dicotyledonous weed plants and crop plants are laid out in sandy loam soil in wood-fiber pots and covered with soil. The compounds of the invention, formulated in the form of wettable powders (WP) or as emulsion concentrates (EC), are then applied to the surface of the covering soil in the form of an aqueous suspension or emulsion at a water application rate equivalent to 600 to 800 l/ha, with addition of 0.2% wetting agent. After the treatment, the pots are placed in a greenhouse and kept under good growth conditions for the trial plants. The damage to the test plants is scored visually after a test period of 3 weeks by comparison with untreated controls (herbicidal activity in percent (%): 100% activity=the plants have died, 0% activity=like control plants). […] The tables below illustrate, in an illustrative manner, the post-emergence herbicidal action of the compounds of the invention, the herbicidal activity being stated in percent.

MATIN [4] = assay: Pre-emergence herbicidal action against MATIN; assay type: in vivo, Matricaria inodora; conditions: dosage 80 g/ha
Method in brief: as §1

PHBPU = assay: Pre-emergence herbicidal action against PHBPU; assay type: in vivo, Pharbitis purpurea; conditions: dosage 80 g/ha
Method in brief: as §1

STEME [5] = assay: Pre-emergence herbicidal action against STEME; assay type: in vivo, Stellaria media; conditions: dosage 80 g/ha
Method in brief: as §1

VERPE [6] = assay: Pre-emergence herbicidal action against VERPE; assay type: in vivo, Veronica persica; conditions: dosage 80 g/ha
Method in brief: as §1

VIOTR [7] = assay: Pre-emergence herbicidal action against VIOTR; assay type: in vivo, Viola tricolor
Method in brief: as §1

DIGSA = assay: Pre-emergence herbicidal action against DIGSA; assay type: in vivo, Digitaria sanguinalis
Method in brief: as §1

ABUTH [8] = assay: Post-emergence herbicidal action against ABUTH; assay type: in vivo, Abutilon theophrasti; conditions: visual assessment about 3 weeks after treatment vs untreated controls
Method in brief: (§2)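 Sandy loam, greenhouse; treatment 2–3 weeks after sowing, one-leaf stage. Aqueous suspension or emulsion from WP/EC sprayed on foliage (600–800 l/ha, 0.2% wetting agent). Readout: visual % action, ~3 weeks.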

AMARE [9] = assay: Post-emergence herbicidal action against AMARE; assay type: in vivo, Amaranthus retroflexus; conditions: 20 g/ha, visual assessment about 3 weeks after treatment, 100% = plants have died, 0% = like control plants
Method in brief: as §2

AVEFA [10] = assay: Post-emergence herbicidal action against AVEFA; assay type: in vivo, Avena fatua; conditions: 20 g/ha, visual assessment about 3 weeks after treatment, 100% = plants have died, 0% = like control plants
Method in brief: as §2

MATIN [11] = assay: Post-emergence herbicidal action against MATIN; assay type: in vivo, Matricaria inodora; conditions: dosage 20 g/ha
Method in brief: as §2

STEME [12] = assay: Post-emergence herbicidal action against STEME; assay type: in vivo, Stellaria media; conditions: 20 g/ha
Method in brief: as §2

VERPE [13] = assay: Post-emergence herbicidal action against VERPE; assay type: in vivo, Veronica persica; conditions: 20 g/ha
Method in brief: as §2

VIOTR [14] = assay: Post-emergence herbicidal action against VIOTR; assay type: in vivo, Viola tricolor; conditions: 20 g/ha
Method in brief: as §2

[15] = 80 g/ha, scored visually after 3 weeks vs untreated controls (100% = plants have died, 0% = like control plants)

CCCn1nnnc1NC(=O)c1ccc(C(F)(F)F)c(C(=O)NC(C)=O)c1Cl [Example 3-337]
90%: Pre-emergence action against ECHCG in % (ECHCG) | Pre-emergence action against PHBPU in % (PHBPU) | Pre-emergence action against DIGSA in % (DIGSA; dosage 20 g/ha) | Post-emergence action against VERPE in % (VERPE [13])
80%: Post-emergence action against ABUTH in % (ABUTH [8]; dosage 5 g/ha) | Post-emergence action against ABUTH in % (ABUTH [8]; dosage 20 g/ha) | Post-emergence action at 20 g/ha against AVEFA in % (AVEFA [10]) | Post-emergence action against MATIN in % (MATIN [11])
100%: Pre-emergence action against ABUTH (herbicidal activity) (ABUTH [1]; [15]) | Pre-emergence action against ABUTH (herbicidal activity in percent) (ABUTH [1]; dosage 20 g/ha, scored visually after 3 weeks vs untreated controls, 100% = plants have died, 0% = like control plants) | Pre-emergence action against ALOMY (herbicidal activity) (ALOMY) | Pre-emergence action against AMARE in % (AMARE [2]; 20 g/ha, scored visually after 3 weeks vs untreated controls, 100% = plants have died, 0% = like control plants) | Pre-emergence action against AMARE in % (AMARE [2]; [15]) | Pre-emergence action against AVEFA in % (AVEFA [3]) | Pre-emergence action against HORMU in % (HORMU) | Pre-emergence action against MATIN in % (MATIN [4]) | Pre-emergence action against STEME in % (STEME [5]) | Pre-emergence action against VERPE in % (VERPE [6]) | Pre-emergence action against VIOTR in % (VIOTR [7]; dosage 20 g/ha) | Pre-emergence action against VIOTR in % (VIOTR [7]; dosage 80 g/ha) | Pre-emergence action against DIGSA in % (DIGSA; dosage 80 g/ha) | Post-emergence action at 20 g/ha against AMARE in % (AMARE [9]) | Post-emergence action against STEME in % (STEME [12]) | Post-emergence action against VIOTR in % (VIOTR [14])
